Assay results taken from publication PMC11383987 (bioRxiv, 2024).
Numbering of substitutions follows the chain as printed. “And” between values parts separate entries of the source, which are not always exact repeats. Identical values can stand only once.

Experiments:
Type in all cases: biochemical
PIN8 S55A/S146A = target: T1, PIN8 S55A/S146A (Arabidopsis thaliana, UniProt Q9LFP6, S146A/S55A); test: SSM electrophysiology peak current response, PIN8 S55A/S146A proteoliposomes; details: for Imax: PIN8 S55A/S146A
T1 sequence (Q9LFP6 1-367 S55A/S146A): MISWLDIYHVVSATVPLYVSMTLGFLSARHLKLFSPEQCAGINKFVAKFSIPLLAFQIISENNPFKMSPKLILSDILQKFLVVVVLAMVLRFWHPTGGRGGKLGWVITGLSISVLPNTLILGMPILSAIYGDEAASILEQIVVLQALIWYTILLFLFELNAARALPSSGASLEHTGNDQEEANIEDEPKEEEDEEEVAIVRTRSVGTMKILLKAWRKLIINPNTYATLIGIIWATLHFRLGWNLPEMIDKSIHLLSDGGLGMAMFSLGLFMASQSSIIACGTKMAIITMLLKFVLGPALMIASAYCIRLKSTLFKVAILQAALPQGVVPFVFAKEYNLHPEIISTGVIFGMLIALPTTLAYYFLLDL

PIN8 Y150A = target: T2, PIN8 Y150A (Arabidopsis thaliana, UniProt Q9LFP6, Y150A); test: SSM electrophysiology peak current response, PIN8 Y150A proteoliposomes; details: for Imax: PIN8 Y150A
T2 sequence (Q9LFP6 1-367 Y150A): T1 sequence (Q9LFP6 1-367 S55A/S146A) with A55S, A146S, Y150A

PIN8 S55A = target: T3, PIN8 S55A (Arabidopsis thaliana, UniProt Q9LFP6, S55A); test: SSM electrophysiology peak current response, PIN8 S55A proteoliposomes; details: for Imax: PIN8 S55A
T3 sequence (Q9LFP6 1-367 S55A): T1 sequence (Q9LFP6 1-367 S55A/S146A) with A146S

PIN8 Y150F = target: T4, PIN8 Y150F (Arabidopsis thaliana, UniProt Q9LFP6, Y150F); test: SSM electrophysiology peak current response, PIN8 Y150F proteoliposomes; details: for Imax: PIN8 Y150F
T4 sequence (Q9LFP6 1-367 Y150F): T1 sequence (Q9LFP6 1-367 S55A/S146A) with A55S, A146S, Y150F

[1] = target: T5, Arabidopsis thaliana PIN8 (Arabidopsis thaliana, UniProt Q9LFP6); test: SSM electrophysiology peak current response, wild-type PIN8 proteoliposomes; details: for EC50: EC50 of peak current response; for EC50 / Imax: WT PIN8, Michaelis-Menten fit; for peak width of SSM current response at various lipid-to-protein ratios (LPR): LPR10 vs LPR50, variation is consistent with transport
T5 sequence (Q9LFP6 1-367): T1 sequence (Q9LFP6 1-367 S55A/S146A) with A55S, A146S

PIN8 S266A = target: T6, PIN8 S266A (Arabidopsis thaliana, UniProt Q9LFP6, S266A); test: SSM electrophysiology peak current response, PIN8 S266A proteoliposomes; details: for Imax: PIN8 S266A
T6 sequence (Q9LFP6 1-367 S266A): T1 sequence (Q9LFP6 1-367 S55A/S146A) with A55S, A146S, S266A

PIN8 S146A = target: T7, PIN8 S146A (Arabidopsis thaliana, UniProt Q9LFP6, S146A); test: SSM electrophysiology peak current response, PIN8 S146A proteoliposomes; details: for Imax: PIN8 S146A
T7 sequence (Q9LFP6 1-367 S146A): T1 sequence (Q9LFP6 1-367 S55A/S146A) with A55S

Row | Compound | EC50 (PIN8 S55A/S146A) | Imax (PIN8 S55A/S146A) | EC50 (PIN8 Y150A) | Imax (PIN8 Y150A) | EC50 (PIN8 S55A) | Imax (PIN8 S55A) | EC50 (PIN8 Y150F) | Imax (PIN8 Y150F) | EC50 [1] | peak width of SSM current response at various lipid-to-protein ratios (LPR) [1] | Imax [1] | EC50 (PIN8 S266A) | Imax (PIN8 S266A) | EC50 (PIN8 S146A) | Imax (PIN8 S146A) | effect of S55A/S146A double mutation on affinity (PIN8 S55A/S146A; PIN8 S55A/S146A vs WT) | effect of S55A mutation on affinity (PIN8 S55A; PIN8 S55A vs WT)
1 | O=C(O)COc1ccc(Cl)cc1Cl [2,4-D, 2,4-dichlorophenoxyacetic acid] | 38 ± 6 µM | 9 ± 2 nA | 0.684 ± 0.256 mM | 5 ± 1 nA | 95 ± 36 µM | 6 ± 0.6 nA | 816 ± 275 µM | 8 ± 2 nA | 179 ± 10 µM | vary with LPR | 17 ± 2 nA | 774 ± 70 µM | 12 ± 0.7 nA | 164 ± 67 µM | 8 ± 0.9 nA |  | 
2 | O=C(O)Cc1c[nH]c2ccccc12 [IAA, indole-3-acetic acid] | 341 ± 128 µM | 7 ± 2 nA | 1.21 ± 0.298 mM | 4 ± 0.3 nA | 213 ± 58 µM | 6 ± 1 nA | 452 ± 32 µM | 6 ± 2 nA | 250 µM and 254 µM | vary with LPR | 18 ± 3 nA | 578 ± 183 µM | 4 ± 0.6 nA | 498 ± 191 µM | 8 ± 2 nA | no effect | remains unchanged
3 | O=C(O)COc1ccc(Cl)cc1 [4-CPA, 4-chlorophenoxyacetic acid] | 81 ± 3 µM | 11 ± 0.9 nA | 2.62 ± 0.263 mM | 5 ± 0.4 nA | 328 ± 15 µM | 11 ± 1 nA | 710 ± 228 µM | 5 ± 0.9 nA | 800 ± 200 µM | vary with LPR | 12 ± 2 nA | 2100 ± 290 µM | 7 ± 2 nA | 369 ± 27 µM | 8 ± 2 nA |  | 
